# Test results reported in patent publication US20250154226A1, “LONG-ACTING GLP-1/GLP-2 DUAL AGONIST COMPOUND” (CHENGDU AODA BIOTECHNOLOGY CO., LTD, priority 2022, published 2025).
# Starred links: 1 amine or outer side, 2 acyl side, 3 side chain; linkers in the order of their positions; H or OH if unused. Non-standard residues stand in square brackets, D forms with d. Residues, ends and D or L forms follow the SMILES beside them. Groups on a side chain read outwards from the residue. *: point of attachment. C18 diacid = O=C(O)CCCCCCCCCCCCCCCCC(=O)*; γGlu = O=C(O)[C@H](CCC(=O)[*:2])N[*:1]; AEEEA = NCCOCCOCCOCC(=O)O; Aib = CC(C)(N)C(=O)O; AEA = NCCOCC(=O)O
# Experiments:
# [1] = Preliminary determination of pharmacokinetic properties in cynomolgus monkeys; format: in vivo; conditions: cynomolgus monkey; male cynomolgus monkeys; subcutaneous (SC) 0.1 mg/kg; plasma, LC-MS
# Description: The test animals were cynomolgus monkeys, two male cynomolgus monkeys in each compound group, and the drug was subcutaneously administered at 0.1 mg/kg. The blood was collected intravenously before (0 h) the administration, and 1 h, 2 h, 3 h, 4 h, 8 h, 12 h, 18 h, 24 h, 48 h, 96 h, 144 h, and 168 h after the administration of the compounds, and then centrifuged to isolate plasma samples.
# GLP-2R = target: T1, GLP-2R (Homo sapiens, UniProt O95838); assay: Determination of GLP-2 activity: cAMP chemiluminescence (RLU) in CHO-K1 cell line stably expressing GLP-2R; format: cell-based; conditions: read-out: GLP-2 activity [EC50 (nmol)]
# T1 construct: expressed in transfected cells; host or cells: CHO-K1
# T1 sequence (O95838 1-553): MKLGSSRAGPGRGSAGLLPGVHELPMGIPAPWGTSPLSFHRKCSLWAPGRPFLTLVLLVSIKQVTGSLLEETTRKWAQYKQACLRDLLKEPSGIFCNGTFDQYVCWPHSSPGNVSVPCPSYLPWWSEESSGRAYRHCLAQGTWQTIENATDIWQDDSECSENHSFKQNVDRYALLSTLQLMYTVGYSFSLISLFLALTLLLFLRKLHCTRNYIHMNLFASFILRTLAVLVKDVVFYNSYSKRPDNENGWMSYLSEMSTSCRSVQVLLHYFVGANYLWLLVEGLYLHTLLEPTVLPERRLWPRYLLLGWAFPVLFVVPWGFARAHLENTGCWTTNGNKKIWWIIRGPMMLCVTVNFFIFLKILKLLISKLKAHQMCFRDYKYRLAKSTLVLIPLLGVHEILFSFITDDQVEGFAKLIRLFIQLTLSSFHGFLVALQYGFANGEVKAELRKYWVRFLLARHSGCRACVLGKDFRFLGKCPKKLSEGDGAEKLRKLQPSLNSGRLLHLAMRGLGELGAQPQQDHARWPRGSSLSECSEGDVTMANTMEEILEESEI
# Description: (§1) GLP-2R, under the stimulation of its specific agonist, can activate the intracellular adenylate cyclase pathway, and increase the level of cAMP, finally leading to the generation and release of insulin. The stimulation of the cell lines stably transfected with […] by the agonist to be tested can lead to rapid increase in the intracellular cAMP level, and the relative light units (RLUs) after stimulating the cells at each dose are determined by chemiluminescence method to calculate the EC50 of the agonist. This method for determining activity is commonly used for GLP-2 receptor agonist activity analysis at home and abroad.
# CHO-K1 cell line stably expressing GLP-2R was stimulated with the agonist at different concentrations. The EC50 value of the agonist was calculated by determining the relative light units after stimulating the cells at each dose.
# GLP-1R = target: T2, GLP-1R (Homo sapiens, UniProt P43220); assay: Determination of GLP-1 activity: cAMP chemiluminescence (RLU) in CHO-K1 cell line stably expressing GLP-1R; format: cell-based; conditions: read-out: GLP-1 activity [EC50 (pmol)]
# T2 construct: expressed in transfected cells; host or cells: CHO-K1
# Description: as §1, with “GLP-1R,” for “GLP-2R,”, “GLP-1” for “GLP-2”
# CHO-K1 cell line stably expressing GLP-1R was stimulated with the agonist at different concentrations. The EC50 value of the agonist was calculated by determining the relative light units after stimulating the cells at each dose.
# T2 sequence (P43220 24-463, species assumed): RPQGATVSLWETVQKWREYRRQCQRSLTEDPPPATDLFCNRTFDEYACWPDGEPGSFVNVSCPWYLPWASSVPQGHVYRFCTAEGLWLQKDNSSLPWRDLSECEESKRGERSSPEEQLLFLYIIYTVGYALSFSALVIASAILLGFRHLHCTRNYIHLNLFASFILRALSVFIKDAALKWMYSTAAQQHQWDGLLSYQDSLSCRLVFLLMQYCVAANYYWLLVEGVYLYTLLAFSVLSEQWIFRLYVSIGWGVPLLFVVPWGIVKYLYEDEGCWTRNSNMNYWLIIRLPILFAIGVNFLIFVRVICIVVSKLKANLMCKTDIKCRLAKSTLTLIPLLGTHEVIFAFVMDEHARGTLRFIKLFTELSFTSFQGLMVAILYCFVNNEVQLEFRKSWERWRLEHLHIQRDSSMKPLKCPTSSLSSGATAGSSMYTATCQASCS
Structure (SMILES),half-life [1] [h],EC50 (GLP-2R) [nM],EC50 (GLP-1R) [nM]
"CC[C@H](C)[C@H](NC(=O)[C@H](Cc1ccccc1)NC(=O)[C@H](CC(=O)O)NC(=O)[C@H](CCCNC(=N)N)NC(=O)[C@H](C)NC(=O)[C@H](C)NC(=O)[C@H](CCC(N)=O)NC(=O)[C@H](CCCCNC(=O)COCCOCCOCCNC(=O)CC[C@H](NC(=O)CCCCCCCCCCCCCCCCC(=O)O)C(=O)O)NC(=O)[C@H](CC(=O)O)NC(=O)[C@H](CC(C)C)NC(=O)[C@@H](NC(=O)[C@@H](NC(=O)[C@H](C)NC(=O)[C@H](CC(C)C)NC(=O)[C@H](CCC(=O)O)NC(=O)[C@H](CO)NC(=O)[C@@H](NC(=O)[C@H](Cc1ccccc1)NC(=O)[C@H](CO)NC(=O)CNC(=O)[C@H](CCC(=O)O)NC(=O)C(C)(C)NC(=O)[C@@H](N)Cc1c[nH]cn1)[C@@H](C)O)[C@@H](C)O)[C@@H](C)CC)C(=O)N[C@@H](C)C(=O)N[C@@H](Cc1c[nH]c2ccccc12)C(=O)N[C@@H](CC(C)C)C(=O)N[C@H](C(=O)N[C@@H](CCC(N)=O)C(=O)N[C@@H](Cc1c[nH]cn1)C(=O)N[C@@H](CCCCN)C(=O)N[C@H](C(=O)N[C@H](C(=O)N[C@@H](CC(=O)O)C(N)=O)[C@@H](C)O)[C@@H](C)CC)[C@@H](C)CC [Compound 4, His-Aib-Glu-Gly-Ser-Phe-Thr-Ser-Glu-Leu-Ala-Thr-Ile-Leu-Asp-Lys(PEG3CH2CO-γGlu-octadecanedioic acid)-Gln-Ala-Ala-Arg-Asp-Phe-Ile-Ala-Trp-Leu-Ile-Gln-His-Lys-Ile-Thr-Asp-NH2] (H-H[Aib]EGSFTSELATILDK([AEEEA-γGlu-C18 diacid])QAARDFIAWLIQHKITD-NH2; N-terminus assumed)",59.2,–,–
"CC[C@H](C)[C@H](NC(=O)[C@H](Cc1ccccc1)NC(=O)[C@H](CC(=O)O)NC(=O)[C@H](CCCNC(=N)N)NC(=O)[C@H](C)NC(=O)[C@H](C)NC(=O)[C@H](CCC(N)=O)NC(=O)[C@H](CCCCNC(=O)COCCNC(=O)CC[C@H](NC(=O)CCCCCCCCCCCCCCCCC(=O)O)C(=O)O)NC(=O)[C@H](CC(=O)O)NC(=O)[C@H](CC(C)C)NC(=O)[C@@H](NC(=O)[C@@H](NC(=O)[C@H](C)NC(=O)[C@H](CC(C)C)NC(=O)[C@H](CCC(=O)O)NC(=O)[C@H](CO)NC(=O)[C@@H](NC(=O)[C@H](Cc1ccccc1)NC(=O)[C@H](CO)NC(=O)CNC(=O)[C@H](CCC(=O)O)NC(=O)C(C)(C)NC(=O)[C@@H](N)Cc1c[nH]cn1)[C@@H](C)O)[C@@H](C)O)[C@@H](C)CC)C(=O)N[C@@H](C)C(=O)N[C@@H](Cc1c[nH]c2ccccc12)C(=O)N[C@@H](CC(C)C)C(=O)N[C@H](C(=O)N[C@@H](CCC(N)=O)C(=O)N[C@@H](Cc1c[nH]cn1)C(=O)N[C@@H](CCCCN)C(=O)N[C@H](C(=O)N[C@H](C(=O)N[C@@H](CC(=O)O)C(N)=O)[C@@H](C)O)[C@@H](C)CC)[C@@H](C)CC [Compound 2, His-Aib-Glu-Gly-Ser-Phe-Thr-Ser-Glu-Leu-Ala-Thr-Ile-Leu-Asp-Lys(PEG1CH2CO-γGlu-octadecanedioic acid)-Gln-Ala-Ala-Arg-Asp-Phe-Ile-Ala-Trp-Leu-Ile-Gln-His-Lys-Ile-Thr-Asp-NH2] (H-H[Aib]EGSFTSELATILDK([AEA-γGlu-C18 diacid])QAARDFIAWLIQHKITD-NH2; N-terminus assumed)",–,5.51,0.0686
